Entries after “also recorded” stand apart in the source; their conditions may differ. Positions of bridges follow the written chain, without caps; N, C: chain ends. Non-standard residues stand in square brackets, D forms with d. Residues, ends and D or L forms follow the SMILES beside them. hArg = N=C(N)NCCCC[C@H](N)C(=O)O; Aib = CC(C)(N)C(=O)O

This is an account of results in patent US7521528B2, “Conformationally constrained parathyroid hormone (PTH) analogs with lactam bridges” (The General Hospital Corporation, priority 2003, dated 2009).

Test [1] deals with T1, recombinant full-length P1R (Homo sapiens, UniProt Q03431).
T1 construct: expressed in transfected cells
T1 sequence (Q03431 27-593): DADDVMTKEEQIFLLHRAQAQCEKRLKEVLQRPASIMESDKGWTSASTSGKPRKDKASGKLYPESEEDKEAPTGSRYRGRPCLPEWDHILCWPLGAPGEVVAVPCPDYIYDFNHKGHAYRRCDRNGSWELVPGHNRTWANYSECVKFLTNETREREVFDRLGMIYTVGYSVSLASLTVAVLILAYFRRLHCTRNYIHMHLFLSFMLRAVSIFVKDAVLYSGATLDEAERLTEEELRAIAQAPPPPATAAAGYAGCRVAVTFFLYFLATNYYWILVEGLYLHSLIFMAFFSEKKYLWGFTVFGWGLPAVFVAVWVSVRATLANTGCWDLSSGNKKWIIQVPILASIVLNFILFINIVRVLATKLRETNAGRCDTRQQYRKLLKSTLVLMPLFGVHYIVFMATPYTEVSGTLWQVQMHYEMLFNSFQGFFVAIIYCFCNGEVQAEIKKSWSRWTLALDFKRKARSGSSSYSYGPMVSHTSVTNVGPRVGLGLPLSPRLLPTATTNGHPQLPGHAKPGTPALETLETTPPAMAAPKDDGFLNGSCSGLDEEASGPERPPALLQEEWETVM
Kind of test: cAMP stimulation in HKRK-B28 cells. The conditions noted are these: for Emax: percent of maximum response of PTH(1-14), Table 3; for capacity to stimulate cAMP formation at a single dose: 10 μM. The format is cell-based. As for the experimental part: Cell Culture. The cell line HKRK-B28 (Takasu, H., et al., J. Bone Miner. Res. 14:11-20 (1999)) was derived from the porcine kidney cell line, LLC-PK1 by stable transfection with plasmid DNA encoding the full-length P1R and expresses ˜280,000 receptors per cell. These cells, as well as COS-7 cells and SaOS-2-B10 cells, were cultured at […] in T-75 flasks ([…]) in Dulbecco's modified Eagle's medium (DMEM) supplemented with fetal bovine serum (10%), penicillin G (20 units/ml), streptomycin sulfate (20 μg/ml) and amphotericin B (0.05 μg/ml) in a humidified atmosphere containing 5% CO2. Stock solutions of EGTA/trypsin and antibiotics were from GIBCO; fetal bovine serum was from Hyclone Laboratories (Logan, Utah). COS-7 cells sub-cultured in 24-well plates were transfected with plasmid DNA (200 ng per well) encoding the wild-type human P1R or truncated human P1R deleted for residues (24-181) (Shimizu, M., et al., J. Biol. Chem. 275:21836-21843 (2000)) that was purified by cesium chloride/ethidium bromide density gradient centrifugation, and FuGENE 6 transfection reagent (Roche Indianapolis Ind.) according to the manufacturer's recommended procedure. All cells, in 24-well plates, were treated with fresh media and shifted to 33° C. for 12 to 24 h prior to assay.
(§1) cAMP Stimulation. Stimulation of cells with peptide analogs was performed in 24-well plates. Cells were rinsed with 0.5 mL of binding buffer (50 mM Tris-HCl, 100 mM NaCl, 5 mM KCl, 2 mM CaCl2, 5% heat-inactivated horse serum, 0.5% fetal bovine serum, adjusted to pH 7.5 with HCl) and treated with 200 μL of cAMP assay buffer (Delbecco's modified Eagle's medium containing 2 mM 3-isobutyl-1-methylxanthine, 1 mg/mL bovine serum albumin, 35 mM Hepes-NaOH, pH 7.4) and 100 μL of binding buffer containing varying amounts of peptide analog (final volume=300 μL). The medium was removed after incubation for 30 to 60 minutes at room temperature, and the cells were frozen on dry ice, lysed with 0.5 mL 50 mM HCl, and refrozen ([…]). The cAMP content of the diluted lysate was determined by radioimmunoassay. The EC50 response values were calculated using nonlinear regression (see below).
(§2) Data Calculation. Calculations were performed using Microsoft® Excel. Nonlinear regression analyses of binding and cAMP dose-response data were performed using the four-parameter equation: yp=Min+[(Max−Min)/(1+(IC50/x)^slope)]. The Excel Solver function was utilized for parameter optimization, as described previously (Carter, P. H., et al., Endocrinology 140: 4972-4981 (1999); Bowen, W. P., and Jerman, J. C., Trends in Pharmacol. Sci. 16: 413-417 (1995)). Differences between paired data sets were statistically evaluated using a one-tailed Student's t-test, assuming unequal variances for the two sets.
The effects of installing a direct covalent linkage between the side chains of the residues at positions 6 and 10 on PTH analog function were also assessed. To do this, paired Glu^6/Lys^10 or Lys^6/Glu^10 substitutions were introduced into an otherwise non-constrained PTH(1-14) analog scaffold AlaValAlaGluIleGln LeuMetHisGlnHarAlaLysTrp-amide (SEQ. ID. NO. 11) and formed an amide bond between the carboxylate side chain group of the introduced glutamate residue and the amino side chain group of the introduced lysine residue. For controls, a portion of each Glu/Lys- or Lys/Glu-substituted PTH(1-14) analog was preserved in the non-bridged form. The four peptides: [Glu^6, Lys^10]PTH(1-14)(linear)(SEQ. ID. NO. 24), [(Glu^6,Lys^10)lac.]PTH(1-14) cyclized via a 6-10 lactam bridge)(SEQ. ID. NO. 3), [Lys^6, Glu^10]PTH(1-14)(SEQ. ID. NO. 25), and [(Lys^6, Glu^10)lac.]PTH(1-14)(SEQ. ID. NO. 26) were first compared at a single dose of 10 μM for the capacity to stimulate cAMP formulation in HKRK-B28 cells, an LLC-PK1-derived cell line that expresses the recombinant full-length P1R at a moderate level (˜280,000 receptors per cell). […]
Background: Changes in cAMP serve as a functional read-out for many G protein-coupled receptors.

The next test concerns the target T2, P1R-DelNt (Homo sapiens, UniProt Q03431).
T2 construct: expressed in transfected cells
T2 sequence (Q03431 with tags, fused parts or gaps limits assumed): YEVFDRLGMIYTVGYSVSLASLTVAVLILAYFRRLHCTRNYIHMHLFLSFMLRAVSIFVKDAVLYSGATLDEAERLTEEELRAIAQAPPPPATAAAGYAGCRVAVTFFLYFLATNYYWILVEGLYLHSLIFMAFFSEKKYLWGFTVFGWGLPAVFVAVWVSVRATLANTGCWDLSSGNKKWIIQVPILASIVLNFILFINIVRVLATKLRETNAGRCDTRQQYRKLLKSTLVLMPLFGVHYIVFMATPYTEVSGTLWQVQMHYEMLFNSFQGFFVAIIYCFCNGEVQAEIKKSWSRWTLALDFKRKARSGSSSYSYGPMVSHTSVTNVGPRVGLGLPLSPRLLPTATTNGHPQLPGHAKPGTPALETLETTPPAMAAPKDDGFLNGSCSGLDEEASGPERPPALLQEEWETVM
Kind of test: cAMP stimulation in LdelNt-2 cells. The format is cell-based. Conditions: for EC50: cAMP accumulation; for Emax: percent of maximum response of PTH(1-14). The procedure:
as §1, §2
The two-domain hypothesis of the PTH-P1R interaction mechanism predicts that the effects of the substitutions at positions 6 and 10 observed with the above PTH(1-11) analogs involve interactions (direct or indirect) that occur within the juxtamembrane region of the receptor. To test this hypothesis, P1R-DelNt was utilized. P1R-DeNt is a P1R construct that is deleted for most of the N domain yet which retains nearly full capacity to be expressed on the cell surface and to stimulate cAMP formation in response to N-terminal PTH analogs, and an LLC-PK1-derived cell line was herein established, LdelNt-2, which stably expresses P1R-DelNt.

One may read the Emax as the size of the effect at its maximum, as opposed to the concentration needed. Regarding `CC[C@H](C)[C@H](NC(=O)[C@H](CCC(=O)O)NC(=O)[C@H](C)NC(=O)[C@@H](NC(=O)[C@H](C)N)C(C)C)C(=O)N[C@@H](CCC(N)=O)C(=O)N[C@@H](CC(C)C)C(=O)N[C@@H](CCSC)C(=O)N[C@@H](Cc1c[nH]cn1)C(=O)N[C@@H](CCC(N)=O)C(=O)N[C@@H](CCCCNC(=N)N)C(=O)N[C@@H](C)C(=O)N[C@@H](CCCCN)C(=O)N[C@@H](Cc1c[nH]c2ccccc12)C(N)=O` [PTH(1-14) (SEQ. ID. NO. 11), [Ala^1,3,12,Gln^10,Har^11,Trp^14]PTH(1-14)amide] (H-AVAEIQLMHQ[hArg]AKW-NH2), the “maximum cAMP response observed” value in test [1] (n=3) was 359±52 picomoles of cAMP per well. Also, the Emax in test [1] worked out at 100 ± 2%.
As for `CC[C@H](C)[C@H](NC(=O)[C@H](CCC(=O)O)NC(=O)[C@H](C)NC(=O)[C@@H](NC(=O)[C@H](C)N)C(C)C)C(=O)N[C@H]1CCC(=O)NCCCC[C@@H](C(=O)N[C@@H](CCCCNC(=N)N)C(=O)N[C@@H](C)C(=O)N[C@@H](CCCCN)C(=O)N[C@@H](Cc2c[nH]c3ccccc23)C(N)=O)NC(=O)[C@H](Cc2c[nH]cn2)NC(=O)[C@H](CCSC)NC(=O)[C@H](CC(C)C)NC1=O` [[(Glu^6, Lys^10)lac.]PTH(1-14), AlaValAlaGluIleGluLeuMetHisLysHarAlaLysTrp cyclized via a 6-10 lactam bridge] (H-AVAEIELMHK[hArg]AKW-NH2; lactam 6-10), in test [1], the “capacity to stimulate cAMP formation at a single dose” value is recorded as “comparable to that of its linear counterpart” and the Emax stood at 52 ± 3%.
For `CC[C@H](C)[C@H](NC(=O)[C@H](CCC(=O)O)NC(=O)[C@H](C)NC(=O)[C@@H](NC(=O)[C@H](C)N)C(C)C)C(=O)N[C@H]1CCCCNC(=O)CC[C@@H](C(=O)N[C@@H](CCCCNC(=N)N)C(=O)N[C@@H](C)C(=O)N[C@@H](CCCCN)C(=O)N[C@@H](Cc2c[nH]c3ccccc23)C(N)=O)NC(=O)[C@H](Cc2c[nH]cn2)NC(=O)[C@H](CCSC)NC(=O)[C@H](CC(C)C)NC1=O` [[(Lys^6, Glu^10)lac.]PTH(1-14)] (H-AVAEIKLMHE[hArg]AKW-NH2; lactam 6-10), in test [1], the “capacity to stimulate cAMP formation at a single dose” value is given as “more active than its linear counterpart; also recorded: significantly (P<0.0001) greater than that elicited by the linear control” and the Emax stood at 59 ± 3%. Also, the “potency relative to linear [Lys^6, Glu^10]PTH(1-14)” value in test [1] (dose-response analyses) is “six-fold more potent”.
For orientation: EC50 means the concentration at which the effect is half-maximal. With `CC[C@H](C)[C@H](NC(=O)[C@H](CCC(=O)O)NC(=O)C(C)(C)NC(=O)[C@@H](NC(=O)C(C)(C)N)C(C)C)C(=O)N[C@@H](CCC(N)=O)C(=O)N[C@@H](CC(C)C)C(=O)N[C@@H](CCSC)C(=O)N[C@@H](Cc1c[nH]cn1)C(=O)N[C@@H](CCC(N)=O)C(=O)N[C@@H](CCCCNC(=N)N)C(=O)N[C@@H](C)C(=O)N[C@@H](CCCCN)C(=O)N[C@@H](Cc1c[nH]c2ccccc12)C(N)=O` [[Aib]PTH(1-14), AibValAibGluIleGlnLeuMetHisGlnHarAlaLysTrp-amide] (H-[Aib]V[Aib]EIQLMHQ[hArg]AKW-NH2), on P1R-DelNt, the “fold increase in cAMP formation/accumulation” value was found to be 50 fold and a half-maximal effect (EC50) was put at 6.6 ± 1.1 nM.
For the compound `CC[C@H](C)[C@H](NC(=O)[C@H](CCC(=O)O)NC(=O)C(C)(C)NC(=O)[C@@H](NC(=O)C(C)(C)N)C(C)C)C(=O)N[C@@H](C)C(=O)N[C@@H](CC(C)C)C(=O)N[C@@H](CCSC)C(=O)N[C@@H](Cc1c[nH]cn1)C(=O)N[C@@H](C)C(=O)N[C@@H](CCCCNC(=N)N)C(=O)N[C@@H](C)C(=O)N[C@@H](CCCCN)C(=O)N[C@@H](Cc1c[nH]c2ccccc12)C(N)=O` [[Aib^1,3, Ala^6,10]PTH(1-14)] (H-[Aib]V[Aib]EIALMHA[hArg]AKW-NH2), on P1R-DelNt, the “potency relative to [Aib^1,3, Ala^6]PTH(1-14)” value is given as “six-fold higher”; a half-maximal response (EC50) required 24 ± 7 nM; the Emax came to 100 ± 3%.
In the case of `CC[C@H](C)[C@H](NC(=O)[C@H](CCC(=O)O)NC(=O)C(C)(C)NC(=O)[C@@H](NC(=O)C(C)(C)N)C(C)C)C(=O)N[C@@H](C)C(=O)N[C@@H](CC(C)C)C(=O)N[C@@H](CCSC)C(=O)N[C@@H](Cc1c[nH]cn1)C(=O)N[C@@H](CCC(N)=O)C(=O)N[C@@H](CCCCNC(=N)N)C(=O)N[C@@H](C)C(=O)N[C@@H](CCCCN)C(=O)N[C@@H](Cc1c[nH]c2ccccc12)C(N)=O` [[Aib^1,3, Ala^6]PTH(1-14)] (H-[Aib]V[Aib]EIALMHQ[hArg]AKW-NH2), on P1R-DelNt, the “potency weaker than parent [Aib]PTH(1-14)” value was 22 fold and the Emax turned out to be 101 ± 4%.
For the compound `CC[C@H](C)[C@H](NC(=O)[C@H](CCC(=O)O)NC(=O)C(C)(C)NC(=O)[C@@H](NC(=O)C(C)(C)N)C(C)C)C(=O)N[C@@H](CCC(N)=O)C(=O)N[C@@H](CC(C)C)C(=O)N[C@@H](CCSC)C(=O)N[C@@H](Cc1c[nH]cn1)C(=O)N[C@@H](C)C(=O)N[C@@H](CCCCNC(=N)N)C(=O)N[C@@H](C)C(=O)N[C@@H](CCCCN)C(=O)N[C@@H](Cc1c[nH]c2ccccc12)C(N)=O` [[Aib^1,3, Ala^10]PTH(1-14)] (H-[Aib]V[Aib]EIQLMHA[hArg]AKW-NH2), at P1R-DelNt, the “potency weaker than parent [Aib]PTH(1-14)” value is recorded as 12 fold, the EC50 amounted to 81 ± 65 nM and the Emax came out at 104 ± 7%.
